Test system: patients diagnosed with Alzheimer's disease
Assay: Mini Mental State Examination (MMSE) performed quarterly in a blinded, placebo-controlled study of lithium microdoses
Format: in vivo, human
Description: Patients clinically diagnosed with Alzheimer's disease by the DSM-IV and NINCDS-ADRDA criteria, and under treatment. The patients were selected by the Mini Mental State Examination (MMSE), which is a questionnaire asked to the patient at each visit, which has a maximum score of 30 points. The Mini-Mental State Examination (MMSE) was designed to be a clinical practice assessment of change in the cognitive status in geriatric patients (Folstein et al, 1975). It examines temporal and spatial orientation, short-term memory (or immediate attention) and recall, calculation, apraxia, and language and visual-spatial skills. It can be used as a screening test for cognitive impairment or as a cognitive assessment of bedside. The Portuguese version of the MMSE (Bertolucci et al, 1994) was considered reliable and adequate for screening and monitoring of ambulatory elderly (Lawrence et al, 2008).
The MMSE includes 11 items, divided into 2 sections. The first requires verbal answers to questions of orientation, memory and attention, the second to questions of reading and writing skills, and it evaluates the skills of appointment, follow verbal and written commands, writing a sentence and copying a drawing (polygons) (Folstein et al, 1975). The cutoff point most often used to indicate a cognitive impairment that deserves further investigation is 24. […] The cutoff point is often adjusted for the education level because a single cut can lose cases among persons with more education, and generate false positives among those with less education. […] Some Brazilian authors studied the measuring characteristics of the scale. Thus, to evaluate the cognitive performance of a population seeking medical screening service of a hospital, Bertolucci applied the MMSE in 530 individuals. We found distinct cutoff points for the diagnosis of cognitive decline, according to the level of education: 13 for illiterates, 18 for low and middle levels of education and 26 for high level of education, with a sensitivity of 82.4%, 75.6% and 80%, and specificity of 97.5%, 96.6% and 95.6%, respectively (Bertolucci et al, 1994). The MMSE was the parameter chosen for inclusion and monitoring of patients of the search for being a test performed on all patients in this clinic and for being a cognitive assessment scale that is practical and useful in the investigation of patients with dementia risk, as in the case of elderly (Almeida, 1998), and it is prescriptive by use and the criteria for dispensing medications adopted by the Ministry of Health. The fact that all medical professionals involved in the evaluation of patients are fully trained and qualified in applying the MMSE was also relevant for this choice. The inclusion of a second test could generate a methodological error that is not measurable. The patients were diagnosed by a neurologist, psychiatrist or geriatrician as suffering from dementia due to Alzheimer's disease, according to the criteria previously mentioned. Patients must present MMSE score equal to or greater than 12 for patients over 4 years of education and greater than or equal to 9 for patients with up to 4 years of education. (Almeida, 1998).
In this preferred embodiment of the invention, the drug tested was the lithium gluconate in a dose of 8.140 mg in 2 mL of solution, which corresponds to 0.28 mg or 0.04 mMol of the metal administered sublingually. Two presentations were used: one containing the lithium gluconate and other containing placebo (anhydrous glucose and purified water). Both presentations were differentiated by a label existing in a group, placebo or lithium, unknown by researchers and by the executors of the MMSE. The patients were selected in a blinded fashion in both groups, with and without stamp by attendance order, being the first with the seal, alternating until the last patient. Formulations were also evaluated with lithium carbonate, respecting the dose of 0.28 mg of metal per dose. […]

SMILES: O=C([O-])[C@H](O)[C@@H](O)[C@H](O)[C@H](O)CO.[Li+] [Lithium, lithium gluconate]
- MMSE scores vs control by age group (61-70 years, F1,62=8.487, p=0.0053, Bonferroni test not significant): significant differences in the treatment factor
- MMSE scores vs control by age group (71-80 years, treatment factor F1,302=29.6, p<0.0001): stable maintenance of these values
- MMSE scores vs control by age group (>80 years, treatment factor F1,225=19.53, p<0.0001): better scores on the MMSE compared to control subjects
- Evolution of MMSE scores in quarterly reviews (all participants, six quarters, treatment factor F1,614=65.81, p<0.0001 vs control): maintenance of these scores
- MMSE score (first quarter of treatment, 0.28 mg lithium metal per dose, sublingual, P<0.01 vs control): 20.57±0.66
- MMSE score (quarter 0, immediately before inclusion in the protocol (baseline), n=56, P=0.17 vs control): 19±0.63
- MMSE score (quarter 5 (end of study), 0.28 mg lithium metal per dose, sublingual, P<0.001 vs control): 20±0.9
- Influence of gender on MMSE scores in the treated group (treated men vs treated women, p=0.4448 and p=0.9786): no significant differences in treatment and time factors
